These results are taken from patent publication US10196374B2 (AstraZeneca AB, priority 2014, dated 2019).

Each structure is given as a SMILES string.

Holding throughout (assay type): cell-based
Assay [1] concerns release of TNFα from whole blood stimulated with LPS. Description: In Vitro Human Whole Blood: inhibition of TNFα release from whole blood stimulated with LPS. The note with it: LPS 30 μg/mL, 18 hr, read-out: TNFα pIC50 (converted). The procedure: In Vitro Human Whole Blood
Venous blood from human donors was collected and anti-coagulated with sodium heparin and transferred to a sterile polystyrene round bottomed plate (Corning) at 190 μL per well.
Control wells received 1 μL DMSO only and the final DMSO concentration in all wells was 0.5%.
10 μL was added to each well to give a final LPS concentration of 30 μg/mL. Unstimulated controls received PBS only at 10 μL/well. The samples were, again, gently mixed, and the plates incubated overnight for 18 hr. Following incubation, the blood was centrifuged at 700×g for 5 min, and the plasma removed and transferred to freeze at −20° C. before assay for TNFα release.
TNFα protein levels were determined using an AlphaLISA hTNFa kit (Perkin Elmer) according to the manufacturer's instructions. Briefly, the samples were allowed to return to room temperature and centrifuged at 1500×g for 5 min. Samples were diluted 1/5 (5 μL sample in 20 μL AlphaLISA buffer). At the same time, a standard curve of TNFα was prepared by serial 1/3 dilutions from a stock solution (5000-2 pg/mL). 5 μL sample/standard curve were transferred to a 384-well Optiplate™, and to this was added 20 μL anti-humanTNFa acceptor beads/biotinylated antibody mix. The plate was incubated at room temperature for 60 min. After this incubation, 25 μL streptavidin donor beads were added, and the plate was incubated for a further 60 min in the dark at room temperature. […] TNFα in the samples was determined by extrapolation from the standard curve and expressed as pg/mL.
Percent inhibition was plotted against concentration, and a curve graphed using a 4-parameter curve fit (Xlfit 4.1) to determine the pIC50.

In assay [2] the target is T1, human glucocorticoid receptor (GR) (Homo sapiens (Human), UniProt P04150). Put plainly: GRE Antagonist Assay (ChagoK1 18:7:2 s4/GRE reporter cells pre-stimulated with dexamethasone). The note with it: for Emax at 1 µM: ChaGo-K-1, relative to full antagonist effect of Mifepristone (RU486), read-out: TA antagonist Observed max Effect at 1 μM (%); for TA antagonist pIC50: transactivation in antagonist mode, pre-stimulated with dexamethasone 70 nM. An excerpt: GRE Antagonist Assay A reporter cell line (ChagoK1 18:7:2 s4/GRE) was established by stable transfection of the human bronchogenic carcinoma celline, ChaGo K1 (ATCC: HTB 168) with a MMTV-GRE-LacZ reporter construct. The generated cell line allows for identification of compounds showing antagonist activity at the human glucocorticoid receptor (GR) via reduction of LacZ gene expression. Dexamethasone-activated GR binds to the Glucocorticoid Response Element (GRE) in the promoter of the LacZ gene and transcription is initiated. Antagonistic properties of compounds are assessed as beta-galactosidase intensity reduction from pre-stimulation with dexamethasone through a colour reaction (change in absorbance). Cryo-preserved ChagoK1 18:7:2 s4/GRE cells were suspended in RPMI medium with 10% FBS, 1% NEAA and 1% sodium pyruvate, and seeded as 50000 cells/200 ul/well in 96-well plates and cultured at 37° C. with 5% CO2 and 95% humidity for 24 hr. […] The reaction was then terminated by addition of 100 μl stop solution (300 mM glycine, 15 mM EDTA, pH 11.3, adjusted with NaOH). The plates were measured at 420 nm for absorbance in a SpectraMax reader (Molecular Device). […]) Where A=min Y, B=max Y, C=log IC50 and D=Slope factor

For assay [3], the target named is T1, human glucocorticoid receptor (GR). Put plainly: GRE Agonist Assay (ChagoK1 18:7:2 s4/GRE MMTV-GRE-LacZ reporter cell line). As to conditions: for Emax at 1 µM: ChaGo-K-1, relative to full agonist effect of dexamethasone, read-out: TA agonist Observed max Effect at 1 μM (%); for TA agonist pEC50: transactivation in agonist mode, ChagoK1 GRE-LacZ reporter cells, 24 hours. The source says: GRE Agonist Assay A reporter cell line (ChagoK1 18:7:2 s4/GRE) was established by stable transfection of the human bronchogenic carcinoma cell line, ChaGo K1 (ATCC: HTB 168) with a MMTV-GRE-LacZ reporter construct. The generated cell line allows for identification of compounds showing agonist activity at the human glucocorticoid receptor (GR) via induction of LacZ gene expression. Ligand-activated GR binds to the Glucocorticoid Response Element (GRE) in the promoter of the LacZ gene and transcription is initiated. The resulting beta-galactosidase activity is measured through a colour reaction (change in absorbance). Cryo-preserved ChagoK1 18:7:2 s4/GRE cells were suspended in RPMI medium with 10% FBS, 1% NEAA and 1% sodium pyruvate, and seeded as 50000 cells/200 ul/well in 96-well plates and cultured at 37° C. with 5% CO2 and 95% humidity for 24 hours. 1 μl compound was added at different concentrations to the cells and incubated for another 24 hours. […] The reaction was then terminated by addition of 100 μl stop solution (300 mM glycine, 15 mM EDTA, pH 11.3, adjusted with NaOH). […]) Where A=min Y, B=max Y, C=log EC50 and D=Slope factor

The subject of assay [4] is tyrosine aminotransferase (TAT) mRNA expression in human hepatocytes. Put plainly: Tyrosine Aminotransferase (TAT) mRNA Expression In Vitro Assay in human primary hepatocytes. As to conditions: 18 hr, fold change vs DMSO control. The procedure:
Tyrosine Aminotransferase (“TAT”) mRNA Expression In Vitro Assay
The impact of test compounds on hyperglycemic events were assessed by looking at changes in mRNA expression of the gene encoding tyrosine aminotransferase (TAT), which is under direct regulation of the glucocorticoid receptor in human hepatocytes.
Human cryopreserved primary hepatocytes (BioreclamationIVT, M00995-P lot EPB) were plated to 24-well collagen I-coated plates (Becton Dickinson, 354408). Cells were allowed to attach for 4 hr before being challenged with test compounds overnight (18 hr). Cells were harvested and total RNA isolated using RNeasy Plus Mini Kit (Qiagen, 74136) followed by cDNA synthesis using High Capacity cDNA reverse transcription kit (Applied Biosystems, 4368813). Real-time RT PCR was performed on an Applied Biosystems 7500 PCR cycler, using Taqman primers for TAT (Life technologies, Hs00356930_m1) and the reference gene hypoxanthine phosphoribosyltransferase 1 (Life technologies, Hs99999909_m1).
Human cryopreserved primary hepatocytes were transferred in to pre-warmed (37° C.) plating medium (BioreclamationIVT, Z990003) and diluted to 0.7×10^6 viable cells/mL. 500 µL of the cell suspension was plated to each well of a collagen I coated 24-well plate and cells were allowed to sediment and attach at 37° C. for 4 hr. After incubation, the media was gently discarded and exchanged for insulin, glucose, glutamine, pyruvate free media (BioreclamationIVT, S00304), containing compounds of interest, prednisolone at 1 μM, dissolved in DMSO (final DMSO concentration 0.01%), or DMSO alone as control. The plates were then incubated at 37° C. for an additional 18 hr. Media was discarded, and total RNA isolation (Qiagen) and cDNA synthesis (Applied Biosystems) performed according to the manufactures protocol. Real-time RT PCR was carried out using TaqMan reagents (Life technologies) on the 7500 PCR cycler, and Ct-values for TAT gene expression was normalised to the control gene and expressed as fold change compared to DMSO control using the 2^−ΔΔCt method.

T1 sequence (P04150 whole entry): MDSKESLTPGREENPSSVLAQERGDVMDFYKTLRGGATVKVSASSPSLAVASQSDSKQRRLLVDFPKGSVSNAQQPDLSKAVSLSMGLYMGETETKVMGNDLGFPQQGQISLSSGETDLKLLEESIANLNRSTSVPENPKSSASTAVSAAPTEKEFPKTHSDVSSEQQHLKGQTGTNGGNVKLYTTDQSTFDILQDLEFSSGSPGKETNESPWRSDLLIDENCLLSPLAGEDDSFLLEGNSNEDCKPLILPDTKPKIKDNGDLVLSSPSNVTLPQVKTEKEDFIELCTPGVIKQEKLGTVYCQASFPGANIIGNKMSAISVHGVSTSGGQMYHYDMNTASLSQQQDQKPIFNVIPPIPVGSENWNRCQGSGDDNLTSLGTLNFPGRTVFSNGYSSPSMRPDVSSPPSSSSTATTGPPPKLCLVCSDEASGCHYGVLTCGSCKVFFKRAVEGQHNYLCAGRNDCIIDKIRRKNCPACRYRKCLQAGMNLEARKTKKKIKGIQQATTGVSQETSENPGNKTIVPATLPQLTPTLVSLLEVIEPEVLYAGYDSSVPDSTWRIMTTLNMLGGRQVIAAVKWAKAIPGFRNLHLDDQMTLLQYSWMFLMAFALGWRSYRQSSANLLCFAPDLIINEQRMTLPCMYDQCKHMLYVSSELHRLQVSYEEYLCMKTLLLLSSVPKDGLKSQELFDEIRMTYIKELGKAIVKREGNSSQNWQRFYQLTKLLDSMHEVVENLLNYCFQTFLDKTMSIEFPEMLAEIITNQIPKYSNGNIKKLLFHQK

With `CC(C)[C@H](NC(=O)C(C)(F)F)[C@H](Oc1ccc2c(cnn2-c2ccc(=O)n(C)c2)c1)c1ccccc1` [Example 1, 2,2-difluoro-N-[(1R,2S)-3-methyl-1-{[1-(1-methyl-6-oxo-1,6-dihydropyridin-3-yl)-1H-indazol-5-yl]oxy}-1-phenylbutan-2-yl]propanamide], in assay [1], the IC50 is 0.631 µM. Further, in assay [2], the Emax at 1 µM is 56% and the “TA antagonist pIC50” value worked out at 6.8. Besides, in assay [3], the Emax at 1 µM turned out to be 36% and the “TA agonist pEC50” value was determined as 8.0. Moreover, the “Fold Change Tyrosine Aminotransferase Gene Expression Relative to Control (1 μM)” value in assay [4] is recorded as 1.0 (0.8-1.4, n = 8).

For the molecule `CC(C)[C@H](NC(=O)C(C)(F)F)[C@H](Oc1ccc2c(cnn2-c2ccc(=O)n(C)c2)c1)c1cc(F)cc(F)c1` [Example 3, N-[(1R,2S)-1-(3,5-difluorophenyl)-3-methyl-1-{[1-(1-methyl-6-oxo-1,6-dihydropyridin-3-yl)-1H-indazol-5-yl]oxy}butan-2-yl]-2,2-difluoropropanamide], in assay [1], the IC50 is 0.1 µM. Further, in assay [2], the Emax at 1 µM is 53% and the “TA antagonist pIC50” value is 7.6. Also, in assay [3], the Emax at 1 µM is 44% and the “TA agonist pEC50” value is 8.6. Also, the “Fold Change Tyrosine Aminotransferase Gene Expression Relative to Control (1 μM)” value in assay [4] is 1.5 (1.4-1.55, n = 2).

`CC(C)[C@H](NC(=O)C(F)(F)F)[C@H](Oc1ccc2c(cnn2-c2ccc(=O)n(C)c2)c1)c1cccc(Cl)c1` [Example 6, N-[(1R,2S)-1-(3-chlorophenyl)-3-methyl-1-{[1-(1-methyl-6-oxo-1,6-dihydropyridin-3-yl)-1H-indazol-5-yl]oxy}butan-2-yl]-2,2,2-trifluoroacetamide]: in assay [1], the IC50 was 0.398 µM. In assay [2], the Emax at 1 µM came to 67% and the “TA antagonist pIC50” value is on record as 7.3. For the same molecule, in assay [3], the Emax at 1 µM worked out at 24% and the “TA agonist pEC50” value is reported as 8.6. Further, the “Fold Change Tyrosine Aminotransferase Gene Expression Relative to Control (1 μM)” value in assay [4] is listed as 0.9 (n = 1).

For `CC(C)[C@H](NC(=O)C(F)(F)F)[C@H](Oc1ccc2c(cnn2-c2ccc(=O)n(C)c2)c1)c1cc(F)cc(Cl)c1` [Example 18, N-[(1R,2S)-1-[3-chloro-5-fluorophenyl]-3-methyl-1-{[1-(1-methyl-6-oxo-1,6-dihydropyridin-3-yl)-1H-indazol-5-yl]oxy}butan-2-yl]-2,2,2-trifluoroacetamide], in assay [2], the Emax at 1 µM is 61% and the “TA antagonist pIC50” value is reported as 7.6. In assay [3], the Emax at 1 µM turned out to be 32% and the “TA agonist pEC50” value is 8.8.

Take `CC(C)[C@H](NC(=O)C(C)(F)F)[C@H](Oc1ccc2c(cnn2-c2ccc(=O)n(C)c2)c1)c1cc(F)cc(Cl)c1` [Example 19, N-[(1R,2S)-1-(3-chloro-5-fluorophenyl)-3-methyl-1-{[1-(1-methyl-6-oxo-1,6-dihydropyridin-3-yl)-1H-indazol-5-yl]oxy}butan-2-yl]-2,2-difluoropropanamide]: in assay [2], the Emax at 1 µM came to 58% and the “TA antagonist pIC50” value was 7.6. In assay [3], the Emax at 1 µM was 38% and the “TA agonist pEC50” value is reported as 8.5.

For `CC(C)[C@H](NC(=O)C(C)(F)F)[C@H](Oc1ccc2c(cnn2-c2ccc(=O)n(C)c2)c1)c1ccc(Cl)c(F)c1` [Example 20, N-[(1R,2S)-1-(4-chloro-3-fluorophenyl)-3-methyl-1-{[1-(1-methyl-6-oxo-1,6-dihydropyridin-3-yl)-1H-indazol-5-yl]oxy}butan-2-yl]-2,2-difluoropropanamide], in assay [2], the Emax at 1 µM was 66% and the “TA antagonist pIC50” value amounted to 7.3. Besides, in assay [3], the Emax at 1 µM was 43% and the “TA agonist pEC50” value is listed as 8.3.

For the molecule `CC(C)[C@H](NC(=O)C(C)(F)F)[C@H](Oc1cc2cnn(-c3ccc(=O)n(C)c3)c2cc1Cl)c1ccccc1` [Example 21, N-[(1R,2S)-1-{[6-chloro-1-(1-methyl-6-oxo-1,6-dihydropyridin-3-yl)-1H-indazol-5-yl]oxy}-3-methyl-1-phenylbutan-2-yl]-2,2-difluoropropanamide], in assay [2], the Emax at 1 µM was determined as 48% and the “TA antagonist pIC50” value came out at 7.3. Also, in assay [3], the Emax at 1 µM is 42% and the “TA agonist pEC50” value came out at 8.3.

For `CC(C)[C@H](NC(=O)C(F)(F)F)[C@H](Oc1cc2cnn(-c3ccc(=O)n(C)c3)c2cc1Cl)c1ccccc1` [Example 22, N-[(1R,2S)-1-{[6-chloro-1-(1-methyl-6-oxo-1,6-dihydropyridin-3-yl)-1H-indazol-5-yl]oxy}-3-methyl-1-phenylbutan-2-yl]-2,2,2-trifluoroacetamide], in assay [2], the Emax at 1 µM came to 56% and the “TA antagonist pIC50” value came to 7.3. Besides, in assay [3], the Emax at 1 µM was 37% and the “TA agonist pEC50” value amounted to 8.5.

As for `CCn1cc(-n2ncc3cc(O[C@H](c4ccccc4)[C@@H](NC(=O)C(C)(F)F)C(C)C)ccc32)ccc1=O` [Example 23, N-[(1R,2S)-1-{[1-(1-ethyl-6-oxo-1,6-dihydropyridin-3-yl)-1H-indazol-5-yl]oxy}-3-methyl-1-phenylbutan-2-yl]-2,2-difluoropropanamide], in assay [2], the Emax at 1 µM was found to be 70% and the “TA antagonist pIC50” value is recorded as 6.4. In assay [3], the Emax at 1 µM stood at 14% and the “TA agonist pEC50” value came out at 7.6.

For the molecule `C[C@]12C=CC(=O)C=C1CC[C@@H]1[C@@H]2[C@@H](O)C[C@@]2(C)[C@H]1CC[C@]2(O)C(=O)CO` [Prednisolone, prednisolone, reference compound], the IC50 in assay [1] was 0.251 µM. Moreover, the “Fold Change Tyrosine Aminotransferase Gene Expression Relative to Control (1 μM)” value in assay [4] is 2.8 (1.3-5.3, n = 10).
